# Test results: patent US10221163B2 (priority 2015, dated 2019)
# pIC50: −log10 of the molar value. Read-outs that look alike come from different tables or passages of the source.
# Columns and labels:
# [1] = tested on: Pseudomonas aeruginosa efflux− (MB9799), IMP-1; format: cell-based; conditions: C, D serine β-lactamase inhibitor closely related to relebactam; for Concentration of metallo-β-lactamase inhibitor which restores susceptibility of efflux − (MB9799) strain to imipenem: imipenem at 2 μg/mL, in the presence of a class A; for P. aeruginosa expressing IMP-1, efflux − (MB9799) MITC95: concentration restoring susceptibility to imipenem at 2 μg/mL in the presence of a class A
# Procedure, shortened: (§1)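 PAO1 pair, broth microdilution; fixed β-lactam (imipenem/ceftazidime) at ~CLSI breakpoint + fixed class A/C BLI for AmpC; serial MBLi titration; endpoint = MBLi conc. restoring susceptibility; MB9798:MB9799 ratio = efflux liability.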
# VIM-1 = VIM-1 (Pseudomonas aeruginosa (strain ATCC 15692 / DSM 22644 / CIP 104116 / JCM 14847 / LMG 12228 / 1C / PRS 101 / PAO1), UniProt A0A0F7KYQ8); experiment: biochemical; conditions: CCF2-FA substrate, 30 pM enzyme, 2 hours at 25° C.
# Procedure, shortened: (§2)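 Two-hour, 25° C incubation of enzyme with inhibitor and CCF2-FA (7-hydroxycoumarin–cephalosporin–fluorescein). Fluorescence read-out; IC50 via 4-parameter fit.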
# NDM-1 = NDM-1 (Klebsiella pneumoniae, UniProt C7C422); experiment: biochemical; format: biochemical; conditions: fluorescence assay, CCF2-FA substrate, 1 pM enzyme, 2 hours at 25° C.; read-out: NDM-1 IC50
# Procedure, shortened: as §2
# IMP-1 = IMP-1 (Serratia marcescens, UniProt P52699); experiment: biochemical; format: biochemical; conditions: fluorescence assay, CCF2-FA substrate, 2 pM enzyme, 2 hours at 25° C.; read-out: IMP-1 IC50
# Procedure, shortened: as §2
# [2] = tested on: Pseudomonas aeruginosa efflux+ (MB9798), IMP-1; format: cell-based; parameters: Concentration of metallo-β-lactamase inhibitor which restores susceptibility of efflux + (MB9798) strain to imipenem: unit not given here; conditions: C, D serine β-lactamase inhibitor closely related to relebactam; for Concentration of metallo-β-lactamase inhibitor which restores susceptibility of efflux + (MB9798) strain to imipenem: imipenem at 2 μg/mL, in the presence of a class A; for P. aeruginosa expressing IMP-1, efflux + (MB9798) MITC95: concentration restoring susceptibility to imipenem at 2 μg/mL in the presence of a class A
# Procedure, shortened: as §1
# [3] = tested on: Serratia marcescens expressing IMP-1 (CL5741); format: cell-based; conditions: for Serratia marcescens MITC95: IMP-1 strain CL5741, with imipenem 1 μg/ml, 95% inhibition of growth; for Serratia marcescens expressing IMP-1 (CL5741) MITC95: with imipenem 1 μg/ml, 95% inhibition of bacterial growth
# Procedure, shortened: (§3)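 Colonies grown overnight on blood agar at 35° C were suspended in saline, diluted 1:100 into 1.1×CAMHB and dispensed. Imipenem was added to 1 μg/ml, then test compound. After 22 hours to 24 hours at 35° C, absorbance was recorded.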
# [4] = tested on: Escherichia coli expressing NDM-1 (CLB30005, CLB30016); format: cell-based; conditions: with imipenem 1 μg/ml; for Escherichia coli MITC95: NDM-1 strain, 95% inhibition of growth; for Escherichia coli expressing NDM-1 (CLB30016) MITC95: 95% inhibition of bacterial growth
# Procedure, shortened: as §3
# [5] = tested on: Klebsiella pneumoniae expressing VIM-1 (IHMA599644); format: cell-based; conditions: for Klebsiella pneumoniae MITC95: VIM-1 strain IHMA599644, with imipenem 1 μg/ml, 95% inhibition of growth; for Klebsiella pneumoniae expressing VIM-1 (IHMA599644) MITC95: with imipenem 1 μg/ml, 95% inhibition of bacterial growth
# Procedure, shortened: as §3
# [6] = tested on: Pseudomonas aeruginosa MB9798 vs MB9799
# Procedure, shortened: as §1
# [7] = fluorescence assay, read-out: VIM-1 IC50
# [8] = fold difference between efflux+ (MB9798) and efflux− (MB9799) strains, imipenem at 2 μg/mL
# [9] = ratio MITC95 PA_9798/MITC95 PA_9799
# Sequence of NDM-1 (C7C422 whole entry, looked up, species assumed): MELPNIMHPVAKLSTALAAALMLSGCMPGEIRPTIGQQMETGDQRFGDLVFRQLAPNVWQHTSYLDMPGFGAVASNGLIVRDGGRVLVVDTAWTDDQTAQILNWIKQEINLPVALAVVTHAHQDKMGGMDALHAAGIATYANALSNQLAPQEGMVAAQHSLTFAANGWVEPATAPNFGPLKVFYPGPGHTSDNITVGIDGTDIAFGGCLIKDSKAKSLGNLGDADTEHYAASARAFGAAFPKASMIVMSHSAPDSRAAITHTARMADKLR
# Sequence of IMP-1 (P52699 whole entry, looked up, species assumed): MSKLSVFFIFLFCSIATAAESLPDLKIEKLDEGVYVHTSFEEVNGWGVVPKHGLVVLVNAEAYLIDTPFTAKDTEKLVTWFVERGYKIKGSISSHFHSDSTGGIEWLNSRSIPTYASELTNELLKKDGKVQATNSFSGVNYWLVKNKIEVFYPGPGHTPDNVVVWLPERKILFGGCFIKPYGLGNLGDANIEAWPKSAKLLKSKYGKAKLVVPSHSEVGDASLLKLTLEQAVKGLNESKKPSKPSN
Structure (SMILES),Concentration of metallo-β-lactamase inhibitor which restores susceptibility of efflux − (MB9799) strain to imipenem [1],pIC50 (VIM-1; [7]),pIC50 (NDM-1),pIC50 (IMP-1),Concentration of metallo-β-lactamase inhibitor which restores susceptibility of efflux + (MB9798) strain to imipenem [2],Serratia marcescens MITC95 [3],Escherichia coli MITC95 [4],Klebsiella pneumoniae MITC95 [5],"Efflux ratio [6, 8]","P. aeruginosa expressing IMP-1, efflux − (MB9799) MITC95 [1]","P. aeruginosa expressing IMP-1, efflux + (MB9798) MITC95 [2]","Efflux ratio [6, 9]","pIC50 (VIM-1; VIM-1 IC50, fluorescence assay)",Serratia marcescens expressing IMP-1 (CL5741) MITC95 [3],Escherichia coli expressing NDM-1 (CLB30016) MITC95 [4],Klebsiella pneumoniae expressing VIM-1 (IHMA599644) MITC95 [5]
"Nc1ccc(-c2ccc(S(=O)(=O)N3CCNCC3)c(S(N)(=O)=O)c2-c2nn[nH]n2)cn1 [Example 485, 3-(6-aminopyridin-3-yl)-6-(piperazin-1-ylsulfonyl)-2-(2H-tetrazol-5-yl)benzenesulfonamide]",0.7813,8.64,8.65,8.45,6.25,0.7813 µM,0.1953 µM,1.563 µM,8.00,–,–,–,–,–,–,–
"CC[C@@H](CN)NS(=O)(=O)c1ccc(-c2cccc3[nH]c(N)nc23)c(-c2nn[nH]n2)c1S(N)(=O)=O [Example 264, (S)-4-(2-amino-1H-benzo[d]imidazol-4-yl)-N1-(1-aminobutan-2-yl)-3-(2H-tetrazol-5-yl)benzene-1,2-disulfonamide]",–,9.33,9.70,8.23,–,1.563 µM,0.7813 µM,1.563 µM,–,0.7813 µM,3.125 µM,4.00,–,–,–,–
"NCCNC(=O)c1cc(Cl)cc(-c2ccc(S(=O)(=O)NCCN)c(S(N)(=O)=O)c2-c2nn[nH]n2)c1N [Example 447, 2-Amino-N-(2-aminoethyl)-4′-(N-(2-aminoethyl)sulfamoyl)-5-chloro-3′-sulfamoyl-2′-(2H-tetrazol-5-yl)-[1,1′-biphenyl]-3-carboxamide]",0.7813,–,9.19,8.80,1.563,0.7813 µM,0.7813 µM,1.563 µM,2.00,–,–,–,9.74,–,–,–
"NC[C@@H](CO)NS(=O)(=O)c1ccc(-c2cccc3[nH]c(N)nc23)c(-c2nnn[nH]2)c1S(N)(=O)=O [Example 426, (S)-4-(2-Amino-1H-benzo[d]imidazol-4-yl)-N^1-(1-amino-3-hydroxypropan-2-yl)-3-(1H-tetrazol-5-yl)benzene-1,2-disulfonamide]",0.7813,9.78,10.49,9.56,0.3906,0.7813 µM,0.3906 µM,1.563 µM,0.50,–,–,–,–,–,–,–
"Nc1nc2c(-c3ccc(S(=O)(=O)NC[C@H]4CCCN4)c(S(N)(=O)=O)c3-c3nn[nH]n3)cccc2[nH]1 [Example 261, (R)-4-(2-amino-1H-benzo[d]imidazol-4-yl)-N1-(pyrrolidin-2-ylmethyl)-3-(2H-tetrazol-5-yl)benzene-1,2-disulfonamide]",–,–,10.16,9.19,–,0.7813 µM,0.1953 µM,0.7813 µM,–,0.7813 µM,0.7813 µM,1.00,9.65,–,–,–
"Nc1nc2c(-c3ccc(S(=O)(=O)NC4C5CNCC54)c(S(N)(=O)=O)c3-c3nnn[nH]3)cccc2s1.O=C(O)C(F)(F)F (stereo not drawn) [Example 111, 6-(4-(2-aminobenzo[d]thiazol-4-yl)-2-sulfamoyl-3-(1H-tetrazol-5-yl)phenylsulfonamido)-3-azabicyclo[3.1.0]hexan-3-ium 2,2,2-trifluoroacetate]",–,9.53,10.13,9.37,–,–,–,–,–,1.563 µM,0.7813 µM,0.50,–,1.563 µM,1.563 µM,3.125 µM
"C[C@H](CN)NS(=O)(=O)c1ccc(-c2cccc3[nH]c(CN)nc23)c(-c2nn[nH]n2)c1S(N)(=O)=O [Example 383, (R)-4-(2-(aminomethyl)-1H-benzo[d]imidazol-4-yl)-N1-(1-aminopropan-2-yl)-3-(2H-tetrazol-5-yl)benzene-1,2-disulfonamide]",–,9.99,10.25,9.27,–,1.563 µM,0.7813 µM,1.563 µM,–,0.7813 µM,0.7813 µM,1.00,–,–,–,–
"Nc1ncccc1-c1ccc(S(=O)(=O)N[C@@H]2CCNC2)c(S(N)(=O)=O)c1-c1nn[nH]n1 [Example 209, (R)-4-(2-aminopyridin-3-yl)-N^1-(pyrrolidin-3-yl)-3-(2H-tetrazol-5-yl)benzene-1,2-disulfonamide]",–,9.75,9.83,8.51,–,–,–,–,–,1.172 µM,1.563 µM,1.33,–,0.7813 µM,0.293 µM,1.563 µM
"Nc1ccc(-c2ccc(S(=O)(=O)NC[C@@H](N)CO)c(S(N)(=O)=O)c2-c2nn[nH]n2)cn1 [Example 365, (R)—N1-(2-amino-3-hydroxypropyl)-4-(6-aminopyridin-3-yl)-3-(2H-tetrazol-5-yl) benzene-1,2-disulfonamide]",–,9.61,9.59,9.23,–,0.3906 µM,0.1953 µM,3.125 µM,–,0.7813 µM,1.563 µM,2.00,–,–,–,–
"COCCNCCNS(=O)(=O)c1ccc(-c2cccc3sc(N)nc23)c(-c2nnn[nH]2)c1S(N)(=O)=O [Example 85, 4-(2-aminobenzo[d]thiazol-4-yl)-N1-(2-((2-methoxyethyl)amino)ethyl)-3-(1H-tetrazol-5-yl)benzene-1,2-disulfonamide]",–,9.83,10.45,9.69,–,–,–,–,–,1.563 µM,1.563 µM,1.00,–,3.125 µM,6.25 µM,6.25 µM
